# Experimental data published in patent US20080063628A1, “METHODS TO PROMOTE CELL DIFFERENTIATION” (priority 2006, published 2008).
# How the values were obtained:
# Format in all cases: cell-based, human
# [1] = system: resting peripheral blood mononuclear cells (PBMCs); assay: Trichostatin A treatment of PBMCs, gene expression by RT-PCR (Example 20); details: 5 μM
# Text: (§1) Human peripheral blood mononuclear cells (PBMCs) were isolated from whole blood using Histopaque (Sigma) gradients and standard density centrifugation. PBMCs are a heterogeneous mixture of lymphoid cells including quiescent T-lymphocytes. Cells were washed thoroughly, counted, and resuspended at 1-2×10^6 cells per ml in culture medium containing RPMI-1640 and 10% FCS. Phytohemagglutinin (PHA; Sigma) is a mitogenic lectin that specifically induces T-lymphocyte activation and proliferation. PHA was added to the cell suspension at a final concentration of 10 μg/ml, and PBMCs were cultured for 3 days at 37° C. with 5% CO2. […] At the end of culture, PBMCs were pooled to harvest, washed thoroughly, and resuspended in fresh culture medium with 5 μM trichostatin A diluted in DMSO. A control culture of PHA-treated PBMCs received an equivalent dilution of DMSO alone. Cells were returned to culture for an additional 24 or 48 hours. Alternatively, resting PBMCs were isolated in a similar manner and cultured for 24 or 48 hours total incubation time with either 5 μM trichostatin A or DMSO alone. At the conclusion of culture, cells were harvested and washed with PBS prior to preparation of RNA in RLT lysis buffer with β-mercaptoethanol (Qiagen). RNA was purified using the RNeasy Mini Kit (Qiagen); RNA quantity and quality were determined using a spectrophotometer. CDNA was made using the iScript CDNA synthesis kit (BioRad). Samples of 20 ng CDNA were used in each RT-PCR reaction, performed on the Applied Biosystems 7500. Results were normalized against GAPDH expression levels with data analysis performed using the accompanying software.
# [2] = system: PHA treated PBMCs containing activated T-lymphocytes; assay: as above; details: 5 μM
# Text: as §1
# [3] = system: amniotic fluid-derived cell line AFCA009-A; assay: Trichostatin A 24 h time course, gene expression by Real-Time PCR (Example 2); details: 1.25 μM
# Procedure: Amniotic fluid derived cells were seeded into 24-well tissue culture plates at a density of 5000/cm^2 and cultured in AMNIOMAX medium (Invitrogen) under standard cell culture conditions until confluent. Cells were obtained according to methods described in Example 14. After reaching confluence, 1.25 μM trichostatin A diluted in DMSO and medium was added to sample wells; an equivalent concentration of DMSO was added to control wells as a no treatment control.
# RNA samples were obtained from treated cultures at 30 minutes, 1.5 hours, 3 hours, 6 hours, 12 hours, and 24 hours following addition of trichostatin A or DMSO. Culture medium was removed, cells were washed with PBS, and RLT lysis buffer with β-mercaptoethanol (Qiagen) was added. RNA was purified using the RNeasy Mini Kit (Qiagen). RNA quantity and quality was determined using a spectrophotometer, and cDNA was made using the iScript cDNA synthesis kit (BioRad).
# Expression levels of Sox17, HNF-3 beta, Pdx-1, insulin, and glucagon were determined by Real-Time PCR. Samples of 20 ng cDNA were used in each reaction, performed on the Applied Biosystems 7500 according to methods described in Example 15. Data analysis was performed using the accompanying software. Human pancreas cDNA was included as a positive control, and results were normalized against GAPDH expression levels.
# Real-time PCR amplifcation and quantitative analysis. Unless otherwise stated, all reagents were purchased from Applied Biosystems. Real-time PCR reactions were performed using the ABI PRISM™ 7500 Sequence Detection System. TAQMAN™ FAST UNIVERSAL PCR MASTER MIX™ (ABI, CA) was used with 20 ng of reverse transcribed RNA in a total reaction volume of 20 μl. Each cDNA sample was run in duplicate to allow correction of pipetting errors. Primers and FAM-labeled TAQMAN™ probes were used at concentrations of 200 nM. The level of expression for each target gene was normalized using the pre-developed Applied Biosystem's human glyceraldehyde-3-phosphate dehydrogenase (GAPDH) endogenous control kit. Primers and probes were designed using either ABI PRISM PRIMER EXPRESS™ software or a pre-developed ABI gene analysis kit. For each gene, either one of the primers or the probe were designed to be exon-boundary spanning. This eliminated the possibility of the primers/probe binding to any genomic DNA present. The primer and probe sets are listed as follows: Pdx-1 (Hs00426216), Insulin (Hs00355773), glucagon (Hs00174967), and FoxA2 (HNF 3-beta) (Hs00232764). The remaining primers were designed using the PRIMERS program (ABI, CA). After an initial 95° C. incubation for 20 sec, samples were cycled 40 times in two stages: a denaturation step at 95° C. for 3 sec, followed by an annealing/extension step at 60° C. for 30 sec.
# For each primer/probe set, a cycle time value was determined as the cycle number at which the fluorescence intensity of the PCR reaction reached a specific value in the middle of the exponential region of amplification. An increase in expression of a gene corresponded to a decrease in the number of cycles required for the fluorescence intensity to reach this value.
# [4] = 24 hrs, after 3 days PHA 10 μg/ml
# [5] = 48 hours, after 3 days PHA 10 μg/ml
compound,measurement,setting,value
CC(/C=C/C(=O)NO)=C\[C@@H](C)C(=O)c1ccc(N(C)C)cc1 [trichostatin A],HNF-3 beta expression,[1]; 24 or 48 hours,negative
same,Sox17 expression,[1]; 24 or 48 hours,negative
same,glucagon expression,[1]; 24 or 48 hours,negative
same,insulin expression,[1]; 24 or 48 hours,negative
same,somatostatin expression,[1]; 24 or 48 hours,negative
same,GAPDH gene expression,[1]; 24 hrs,+++ (detectable at less than 35 cycles by RT-PCR with SE less than 0.9)
same,GATA4 gene expression,[1]; 24 hrs,+ (detectable at greater than 35–40 cycles by RT-PCR)
same,Gata1 gene expression,[1]; 24 hrs,nd (not detectable at >40 cycles by RT-PCR)
same,Pdx-1 gene expression,[1]; 24 hrs,nd (not detectable at >40 cycles by RT-PCR)
same,GAPDH gene expression,[1]; 48 hours,+++ (detectable at less than 35 cycles by RT-PCR with SE less than 0.9)
same,GATA4 gene expression,[1]; 48 hours,+ (detectable at greater than 35–40 cycles by RT-PCR)
same,Gata1 gene expression,[1]; 48 hours,nd (not detectable at >40 cycles by RT-PCR)
same,Pdx-1 gene expression,[1]; 48 hours,nd (not detectable at >40 cycles by RT-PCR)
same,HNF-3 beta expression,[2]; 24 or 48 hours,negative
same,Sox17 expression,[2]; 24 or 48 hours,negative
same,glucagon expression,[2]; 24 or 48 hours,negative
same,insulin expression,[2]; 24 or 48 hours,negative
same,somatostatin expression,[2]; 24 or 48 hours,negative
same,GAPDH gene expression,[2]; [4],+++ (detectable at less than 35 cycles by RT-PCR with SE less than 0.9)
same,GATA4 gene expression,[2]; [4],+++ (detectable at less than 35 cycles by RT-PCR with SE less than 0.9)
same,Gata1 gene expression,[2]; [4],nd (not detectable at >40 cycles by RT-PCR)
same,Pdx-1 gene expression,[2]; [4],+ (detectable at greater than 35–40 cycles by RT-PCR)
same,GATA4 gene expression,[2]; [5],+++ (detectable at less than 35 cycles by RT-PCR with SE less than 0.9)
same,Gata1 gene expression,[2]; [5],nd (not detectable at >40 cycles by RT-PCR)
same,Pdx-1 gene expression,[2]; [5],+ (detectable at greater than 35–40 cycles by RT-PCR)
same,HNF-3 beta gene expression,[3]; 0.5 h,+ (detectable between 35 and 40 cycles by RT-PCR)
same,Insulin gene expression,[3]; 0.5 h,+ (detectable between 35 and 40 cycles by RT-PCR)
same,PDX-1 gene expression,[3]; 0.5 h,nd (not detectable at >40 cycles by RT-PCR)
same,Sox17 gene expression,[3]; 0.5 h,+++ (detectable at less than 35 cycles by RT-PCR with std error less than 0.9)
same,glucagon gene expression,[3]; 0.5 h,nd (not detectable at >40 cycles by RT-PCR)
same,HNF-3 beta RT-PCR detection cycle,[3]; 30 minutes,> 35 cycles
same,HNF-3 beta gene expression,[3]; 1.5 h,+ (detectable between 35 and 40 cycles by RT-PCR)
same,Insulin gene expression,[3]; 1.5 h,+ (detectable between 35 and 40 cycles by RT-PCR)
same,PDX-1 gene expression,[3]; 1.5 h,nd (not detectable at >40 cycles by RT-PCR)
same,Sox17 gene expression,[3]; 1.5 h,+++ (detectable at less than 35 cycles by RT-PCR with std error less than 0.9)
same,glucagon gene expression,[3]; 1.5 h,nd (not detectable at >40 cycles by RT-PCR)
same,HNF-3 beta gene expression,[3]; 3 h,+++ (detectable at less than 35 cycles by RT-PCR with std error less than 0.9)
same,Insulin gene expression,[3]; 3 h,+ (detectable between 35 and 40 cycles by RT-PCR)
same,PDX-1 gene expression,[3]; 3 h,nd (not detectable at >40 cycles by RT-PCR)
same,Sox17 gene expression,[3]; 3 h,+++ (detectable at less than 35 cycles by RT-PCR with std error less than 0.9)
same,glucagon gene expression,[3]; 3 h,nd (not detectable at >40 cycles by RT-PCR)
same,HNF-3 beta gene expression,[3]; 6 h,+++ (detectable at less than 35 cycles by RT-PCR with std error less than 0.9)
same,Insulin gene expression,[3]; 6 h,nd (not detectable at >40 cycles by RT-PCR)
same,PDX-1 gene expression,[3]; 6 h,+ (detectable between 35 and 40 cycles by RT-PCR)
same,Sox17 gene expression,[3]; 6 h,+++ (detectable at less than 35 cycles by RT-PCR with std error less than 0.9)
same,glucagon gene expression,[3]; 6 h,nd (not detectable at >40 cycles by RT-PCR)
same,Pdx-1 RT-PCR detection cycle,[3]; 6 hours,> 35 cycles
same,HNF-3 beta gene expression,[3]; 12 h,+++ (detectable at less than 35 cycles by RT-PCR with std error less than 0.9)
same,Insulin gene expression,[3]; 12 h,+ (detectable between 35 and 40 cycles by RT-PCR)
same,PDX-1 gene expression,[3]; 12 h,+++ (detectable at less than 35 cycles by RT-PCR with std error less than 0.9)
same,Sox17 gene expression,[3]; 12 h,+++ (detectable at less than 35 cycles by RT-PCR with std error less than 0.9)
same,glucagon gene expression,[3]; 12 h,+ (detectable between 35 and 40 cycles by RT-PCR)
same,glucagon RT-PCR detection cycle,[3]; 12 hours,> 35 cycles
same,HNF-3 beta gene expression,[3]; 24 h,+++ (detectable at less than 35 cycles by RT-PCR with std error less than 0.9)
same,Insulin gene expression,[3]; 24 h,+ (detectable between 35 and 40 cycles by RT-PCR)
same,PDX-1 gene expression,[3]; 24 h,+++ (detectable at less than 35 cycles by RT-PCR with std error less than 0.9)
same,Sox17 gene expression,[3]; 24 h,+++ (detectable at less than 35 cycles by RT-PCR with std error less than 0.9)
same,glucagon gene expression,[3]; 24 h,+++ (detectable at less than 35 cycles by RT-PCR with std error less than 0.9)
same,HNF-3 beta RT-PCR detection cycle,[3]; 24 hours,< 35 cycles
same,Pdx-1 RT-PCR detection cycle,[3]; 24 hours,< 35 cycles
same,Pdx-1 gene expression relative to human pancreas,[3]; 24 hours,~0.1 % of human pancreas levels
same,glucagon RT-PCR detection cycle,[3]; 24 hours,< 24 cycles
